Measured values taken from patent US8722659B2, “Quinazolinedione derivatives, preparation thereof and various therapeutic uses thereof” (Sanofi, priority 2009, dated 2014).

How the values were obtained:
Human PDE7 = target: T1, Human PDE7 (Homo sapiens, UniProt Q13946); assay: PDE7 enzymatic test ([3H]-cAMP hydrolysis, TLC on PEI cellulose); type: biochemical; details: human PDE7 partially purified from HUT-78; cAMP concentration about 4 times the Km; 10 μM rolipram present
T1 construct: Human PDE7 was partially purified from the cell line HUT-78; endogenous in cells; host or cells: HUT-78 (human T-cell line), partially purified enzyme preparation
T1 sequence (Q13946 whole entry): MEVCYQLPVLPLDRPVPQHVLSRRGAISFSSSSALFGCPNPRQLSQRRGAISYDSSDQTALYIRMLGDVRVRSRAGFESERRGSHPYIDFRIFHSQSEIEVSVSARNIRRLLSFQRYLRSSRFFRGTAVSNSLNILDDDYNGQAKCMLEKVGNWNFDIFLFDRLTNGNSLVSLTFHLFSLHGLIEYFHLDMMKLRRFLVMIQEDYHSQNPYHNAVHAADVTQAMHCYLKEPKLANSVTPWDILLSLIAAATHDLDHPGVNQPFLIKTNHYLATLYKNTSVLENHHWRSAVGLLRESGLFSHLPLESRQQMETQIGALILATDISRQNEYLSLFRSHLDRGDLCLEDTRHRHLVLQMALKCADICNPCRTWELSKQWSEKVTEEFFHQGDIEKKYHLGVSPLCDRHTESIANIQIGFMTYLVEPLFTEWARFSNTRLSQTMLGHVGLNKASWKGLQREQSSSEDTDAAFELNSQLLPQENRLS
Protocol: (§1) The capacity of the compounds of formula (I) to inhibit PDE7 is measured by means of an enzymatic test based on separating radioactive cAMP (substrate of PDE7) from radioactive 5′-AMP (product of the enzymatic reaction) by thin-layer chromatography on polyethyleneimine (PEI) cellulose, after stopping the enzymatic reaction. The 5′-AMP is quantitatively extracted from the PEI cellulose and its radioactivity is measured using a liquid scintillation counter.
The inhibitory activity of the compounds of formula (I) on PDE7 is represented by the inhibition constant IC50, defined as the concentration of test compound (inhibitor) in the trial that can reduce the enzymatic activity of PDE7 by 50%. The lower the IC50 values, the greater the inhibitory power of the compounds.
Human PDE7 was partially purified from the cell line HUT-78 by following a method similar to that described by Bloom and Beavo (Proc. Natl. Acad. Sci. USA, (1996) 93, 14188-14192). The enzyme preparation obtained is stored at −80° C. in a buffer containing 20 mM of Tris-HCl (pH 7.0), 5 mM of MgCl2, 4 mM of EDTA, 1 mM of dithiothreitol and 20% glycerol. […] The Michaelis constant (Km) of PDE7 for cAMP, measured using the radiochemical test described hereinbelow, is 21 nM.
The compounds of formula (I) to be tested as PDE7 inhibitors are dissolved in DMSO to a concentration of 10 mM. These solutions are then serially diluted in DMSO to obtain solutions of desired concentrations. These solutions are then diluted 20-fold in the test buffer to give solutions containing 5% DMSO. These solutions are finally diluted 5-fold in the enzymatic test.
The test is performed in 1.5-ml Eppendorf tubes containing 40 mM of Tris-HCl (pH 7.5), 15 mM of MgCl2, 1 mM of EGTA, 0.5 mg/ml of bovine serum albumin, 0.25 μCi of [^3H]-cAMP (corresponding to a cAMP concentration of between 60 and 100 nM), 10 μM of rolipram and PDE7 in a final volume of 100 μl. The test is performed in the absence (control sample) or in the presence (treated sample) of compounds tested as PDE7 inhibitors. The final concentration of DMSO in the test is […]. The reaction is initiated by adding enzyme and the samples are maintained at room temperature for 30 minutes. The enzymatic dilution is adjusted so as to obtain a degree of conversion of 10% to 15%. The enzymatic reaction is stopped by immersing the stoppered Eppendorf tubes in a water bath at 100° C. for 3 minutes. Blanks (reaction stopped immediately after adding the enzyme) are included in each experiment. The samples are then centrifuged at 10 000×g for 1 minute and a 10 μl aliquot portion of the supernatant is deposited 2 cm from the bottom edge of a sheet of PEI cellulose onto which 10 μg of cAMP and 10 μg of 5′-AMP have previously been deposited. To facilitate the migration and the subsequent cutting of the PEI cellulose strips containing the 5′-AMP, 18 migration paths 1 cm wide are delimited per plate by scraping the cellulose with a spatula over a width of 1 mm. The plates are developed over their entire length with a 0.30 M solution of LiCl in water by ascending chromatography. The 5′-AMP (Rf=0.20) and the cAMP (Rf=0.47) are visualized under UV light at 254 nm. The PEI cellulose bands containing the 5′-AMP are cut out and the nucleotide is extracted quantitatively into counting flasks with 2 ml of a solution containing 16 M of formic acid and 2 M of ammonium formate in water (rotary stirring for 15 minutes). After adding 10 ml of scintillation liquid (OptiPhase HiSafe 3 from Perkin-Elmer/Wallac), the radioactivity is counted using a liquid scintillation counter (Perkin-Elmer/Wallac model 1414). Each test is performed in duplicate. The radioactivity specifically associated with the 5′-AMP formed in the enzymatic reaction is obtained by subtracting the mean value of the blanks from the mean value of the controls (or of the treated samples). […]

CLL-PBMCs = details: PBMC of chronic lymphocytic leukaemia patients; cited from earlier work
[1] = tested on: PBMCs of normal individuals; details: cited from earlier work
PDE8 = PDE8 enzymatic test equivalent to that described for PDE7; type: biochemical; details: at 0.1 μM
Protocol: as §1
The test is performed in 1.5-ml Eppendorf tubes containing 40 mM of Tris-HCl (pH 7.5), 15 mM of MgCl2, 1 mM of EGTA, 0.5 mg/ml of bovine serum albumin, 0.25 μCi of [^3H]-cAMP (corresponding to a cAMP concentration of between 60 and 100 nM), 10 μM of rolipram and PDE7 in a final volume of 100 μl. The test is performed in the absence (control sample) or in the presence (treated sample) of compounds tested as PDE7 inhibitors. The final concentration of DMSO in the test is 2%. […] The PEI cellulose bands containing the 5′-AMP are cut out and the nucleotide is extracted quantitatively into counting flasks with 2 ml of a solution containing 16 M of formic acid and 2 M of ammonium formate in water (rotary stirring for 15 minutes). After adding 10 ml of scintillation liquid (OptiPhase HiSafe 3 from Perkin-Elmer/Wallac), the radioactivity is counted using a liquid scintillation counter (Perkin-Elmer/Wallac model 1414). […]

| SMILES | IC50 (Human PDE7) [nM] | also measured |
| --- | --- | --- |
| COc1ccc(Cn2c(=O)c3cc(CF)ccc3n(C3CCOCC3)c2=O)cc1OC [Compound 60, 3-(3,4-dimethoxybenzyl)-6-(fluoromethyl)-1-(tetrahydro-2H-pyran-4-yl)-quinazoline-2,4(1H,3H)-dione] | 12 |  |
| COc1ccc(Cn2c(=O)c3cc(OCC#N)ccc3n(C3CCOCC3)c2=O)cn1 [Compound 9, ({3-[(6-methoxypyridin-3-yl)methyl]-2,4-dioxo-1-(tetrahydro-2H-pyran-4-yl)-1,2,3,4-tetrahydroquinazolin-6-yl}oxy)acetonitrile] | 16 |  |
| COc1ccc(Cn2c(=O)c3cc(OCC#N)ccc3n(C3CC[S+]([O-])CC3)c2=O)cc1OC (single isomer, unassigned; isomer 1) [Compound 17, {[3-(3,4-dimethoxybenzyl)-1-(1-oxidotetrahydro-2H-thiopyran-4-yl)-2,4-dioxo-1,2,3,4-tetrahydroquinazolin-6-yl]oxy}acetonitrile (isomer 1)] | 6.1 |  |
| COc1ccc(Cn2c(=O)c3cc(OCC#N)ccc3n(C3CCS(=O)(=O)CC3)c2=O)cc1OC [Compound 14, {[3-(3,4-dimethoxybenzyl)-1-(1,1-dioxidotetrahydro-2H-thiopyran-4-yl)-2,4-dioxo-1,2,3,4-tetrahydroquinazolin-6-yl]oxy}acetonitrile] | 230 |  |
| Cc1ccc([N+](=O)[O-])cc1S(=O)(=O)N(C)C [BRL-50481] |  | apoptosis of CLL-PBMCs (CLL-PBMCs): induces dose-dependent apoptosis; effect on the PBMCs of normal individuals [1]: no effect |
| COc1ccc(Cn2c(=O)c3cc(OCC#N)ccc3n(C3CCOCC3)c2=O)cc1OC [Compound 2, {[3-(3,4-dimethoxybenzyl)-2,4-dioxo-1-(tetrahydro-2H-pyran-4-yl)-1,2,3,4-tetrahydroquinazolin-6-yl]oxy}acetonitrile] | 8.9 |  |
| COc1ccc(Cn2c(=O)c3cc(CO)ccc3n(C3CCOCC3)c2=O)cc1OC [Compound 45, 3-(3,4-dimethoxybenzyl)-6-(hydroxymethyl)-1-(tetrahydro-2H-pyran-4-yl)-quinazoline-2,4(1H,3H)-dione] | 61 |  |
| COc1ccc(Cn2c(=O)c3cc(OCC#N)ccc3n(C3CCSCC3)c2=O)cc1OC [Compound 11, {[3-(3,4-dimethoxybenzyl)-2,4-dioxo-1-(tetrahydro-2H-thiopyran-4-yl)-1,2,3,4-tetrahydroquinazolin-6-yl]oxy}acetonitrile] | 5.5 |  |
| COc1cc(Cn2c(=O)c3cc(OC(CF)CF)c(F)cc3n(C3CCOCC3)c2=O)ccc1OCc1ccccc1 [Compound 64, 3-[4-(benzyloxy)-3-methoxybenzyl]-6-[(1,3-difluoropropan-2-yl)oxy]-7-fluoro-1-(tetrahydro-2H-pyran-4-yl)quinazoline-2,4(1H,3H)-dione] |  | inhibition of PDE8 (PDE8): 59% |
